Test results taken from ChEMBL document CHEMBL1201862, “PubChem BioAssay data set” (2004).
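Where inhibition never reached the appropriate level, the endpoint shown equals the highest concentration tested. Otherwise, values were interpolated linearly from a five-concentration, 48-hour dose response in 96-well plates. Here, GI50 denotes the concentration required for 50% inhibition of growth.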 Active and inactive are the calls of the source. Rule as the data show it: active = GI50 up to about 1.1 µM and inactive = higher. Square brackets hold non-standard residues; d marks the D form. Peptide text beside a SMILES is read from it. * marks the point of attachment. NMeV = CN[C@H](C(=O)O)C(C)C; X28 = COc1ccc(CN*)c(OC)c1; Octanoyl = CCCCCCCC(=O)*; dNMeA = CN[C@H](C)C(=O)O

Columns and labels:
Assay in all cases: inhibition of tumour cell growth, NCI panel, 48 h
HCC 2998 = tested on: HCC 2998
SF-268 = tested on: SF-268
TK-10 = tested on: TK-10
OVCAR-8 = tested on: OVCAR-8
OVCAR-5 = tested on: OVCAR-5
HCT-15 = tested on: HCT-15
SR = tested on: SR
U-251 = tested on: U-251
Malme-3M = tested on: Malme-3M
M14 = tested on: M14
IGROV-1 = tested on: IGROV-1
T47D = tested on: T47D
MOLT-4 = tested on: MOLT-4
SK-MEL-28 = tested on: SK-MEL-28
NCI-H23 = tested on: NCI-H23
SF-539 = tested on: SF-539
MCF7 = tested on: MCF7
SW-620 = tested on: SW-620
UACC-62 = tested on: UACC-62
EKVX = tested on: EKVX

SMILES	GI50 (HCC 2998)	GI50 (SF-268)	GI50 (TK-10)	GI50 (OVCAR-8)	GI50 (OVCAR-5)	GI50 (HCT-15) [µM]	GI50 (SR)	GI50 (U-251)	GI50 (Malme-3M)	GI50 (M14)	GI50 (IGROV-1)	GI50 (T47D)	GI50 (MOLT-4)	GI50 (SK-MEL-28)	GI50 (NCI-H23)	GI50 (SF-539)	GI50 (MCF7)	GI50 (SW-620)	GI50 (UACC-62)	GI50 (EKVX)
Cc1cccc2c1CC(Cc1ccccc1C(=O)O)C2=O (stereo not given)	> 100 µM (inactive)	> 100 µM (inactive)	> 100 µM (inactive)	> 100 µM (inactive)	> 100 µM (inactive)	> 100	> 100 µM (inactive)	> 100 µM (inactive)	> 100 µM (inactive)	> 100 µM (inactive)	> 100 µM (inactive)	> 100 µM (inactive)	> 100 µM (inactive)	> 100 µM (inactive)	> 100 µM (inactive)	> 100 µM (inactive)	> 100 µM (inactive)	> 100 µM (inactive)	> 100 µM (inactive)	> 100 µM (inactive)
CCOC(=O)Cn1nc2ccc(Nc3nc4ccccc4nc3C(=O)OCC)cc2n1	83 µM (inactive)	47.4 µM (inactive)	38.4 µM (inactive)	58.2 µM (inactive)	> 100 µM (inactive)	> 100	> 100 µM (inactive)	44.4 µM (inactive)	45.6 µM (inactive)	> 100 µM (inactive)	69.7 µM (inactive)	37.5 µM (inactive)	> 100 µM (inactive)	> 100 µM (inactive)	76.6 µM (inactive)	23.5 µM (inactive)	76.4 µM (inactive)	> 100 µM (inactive)	66.8 µM (inactive)	52 µM (inactive)
O=C1OC(c2ccccc2)=N/C1=C\c1ccc(Br)cc1	> 100 µM (inactive)	> 100 µM (inactive)	> 100 µM (inactive)	> 100 µM (inactive)	> 100 µM (inactive)	> 100	66.2 µM (inactive)	> 100 µM (inactive)	74.8 µM (inactive)	> 100 µM (inactive)	> 100 µM (inactive)	> 100 µM (inactive)	94 µM (inactive)	> 100 µM (inactive)	> 100 µM (inactive)	> 100 µM (inactive)	> 100 µM (inactive)	> 100 µM (inactive)	> 100 µM (inactive)	> 100 µM (inactive)
Cc1nn(-c2ccccn2)c2c1C(SC#N)=C(C=O)CC2	11.9 µM (inactive)	16.5 µM (inactive)	1.67 µM (inactive)	15.9 µM (inactive)	4.85 µM (inactive)	17.4	10.1 µM (inactive)	15.5 µM (inactive)	18.3 µM (inactive)	15.8 µM (inactive)	11.5 µM (inactive)	4.05 µM (inactive)	2.57 µM (inactive)	21.2 µM (inactive)	16.4 µM (inactive)	19.1 µM (inactive)	10.5 µM (inactive)	13.7 µM (inactive)	5.71 µM (inactive)	16.9 µM (inactive)
CCCCCCCC(=O)N[C@H](C(=O)N[C@H](C(=O)N(C)[C@H](C(=O)N1CCC[C@H]1C(=O)N(C)[C@H](C)C(=O)NCc1ccc(OC)cc1OC)C(C)C)C(C)C)C(C)C (Octanoyl-VV[NMeV]P[dNMeA]-X28)	13.4 µM (inactive)	15.2 µM (inactive)	22.3 µM (inactive)	5.58 µM (inactive)	25.5 µM (inactive)	21.5	17.6 µM (inactive)	4.79 µM (inactive)	8.17 µM (inactive)	7.82 µM (inactive)	3.75 µM (inactive)	4.29 µM (inactive)	14.2 µM (inactive)	8.77 µM (inactive)	13.6 µM (inactive)	18.8 µM (inactive)	7.53 µM (inactive)	7.71 µM (inactive)	7.21 µM (inactive)	6.89 µM (inactive)
C=C1C(=O)O[C@H]2[C@H]1[C@H](OC(=O)/C(C)=C\C)C[C@]1(CO1)[C@@H]1[C@H](OC(C)=O)C=C(C)[C@]21O [EUPAROTIN ACETATE]	19.3 µM (inactive)	19.2 µM (inactive)	7.73 µM (inactive)	30.8 µM (inactive)	25.4 µM (inactive)	13.3	3.64 µM (inactive)	21.9 µM (inactive)	13.5 µM (inactive)	21.6 µM (inactive)	19.5 µM (inactive)	14.5 µM (inactive)	5.18 µM (inactive)	14.7 µM (inactive)	23.2 µM (inactive)	30.3 µM (inactive)	6.79 µM (inactive)	8.85 µM (inactive)	15.5 µM (inactive)	17 µM (inactive)
